Assay results published in patent publication US7375090B2, “Glucopyranosyloxy-pyrazoles, pharmaceutical compositions containing these compounds, the use thereof and processed for the preparation thereof” (Boehringer Ingelheim International GmbH, priority 2003, dated 2008).

Biological target: T1, human sodium glucose cotransporter 2 (Homo sapiens, UniProt P31639)
T1 construct: expressed in transfected cells; host or cells: CHO-K1 (ATCC No. CCL 61) or HEK293 (ATCC No. CRL-1573), stably transfected with pZeoSV-hSGLT2
T1 sequence (P31639 1-672): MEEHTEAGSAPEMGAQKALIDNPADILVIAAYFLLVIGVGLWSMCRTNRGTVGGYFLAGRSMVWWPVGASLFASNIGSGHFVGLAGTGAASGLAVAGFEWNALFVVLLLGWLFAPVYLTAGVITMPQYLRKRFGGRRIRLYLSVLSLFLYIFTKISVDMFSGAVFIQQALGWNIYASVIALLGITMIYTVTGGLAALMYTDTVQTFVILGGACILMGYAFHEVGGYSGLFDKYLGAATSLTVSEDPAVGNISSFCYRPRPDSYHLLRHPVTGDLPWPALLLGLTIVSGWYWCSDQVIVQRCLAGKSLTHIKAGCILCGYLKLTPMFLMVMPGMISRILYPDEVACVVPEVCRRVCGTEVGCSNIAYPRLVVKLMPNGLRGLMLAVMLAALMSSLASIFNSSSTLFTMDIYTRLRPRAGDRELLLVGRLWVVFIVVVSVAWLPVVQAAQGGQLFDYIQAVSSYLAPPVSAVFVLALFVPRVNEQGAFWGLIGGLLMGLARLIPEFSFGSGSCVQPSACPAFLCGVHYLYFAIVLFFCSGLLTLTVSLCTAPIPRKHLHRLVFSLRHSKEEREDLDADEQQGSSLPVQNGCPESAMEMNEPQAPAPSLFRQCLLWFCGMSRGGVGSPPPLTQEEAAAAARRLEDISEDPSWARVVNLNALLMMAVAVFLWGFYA
Assay: SGLT-2 assay (14C-AMG uptake in CHO-hSGLT2 or HEK-hSGLT2 cells)
Type: cell-based
Settings: inhibition of 14C-AMG uptake; CHO-K1 or HEK293 cells stably transfected with hSGLT2; 2 hours' incubation at 37° C.
Description: These cell lines transport ^14C-labelled alpha-methyl-glucopyranoside (14C-AMG, Amersham) into the interior of the cell in sodium-dependent manner.
The SGLT-2 assay is carried out as follows:
CHO-hSGLT2 cells are cultivated in Ham's F12 Medium (BioWhittaker) with 10% foetal calf serum and 250 μg/ml zeocin (Invitrogen), and HEK293-hSGLT2 cells are cultivated in DMEM medium with 10% foetal calf serum and 250 μg/ml zeocin (Invitrogen).
The cells are detached from the culture flasks by washing twice with PBS and subsequently treating with trypsin/EDTA. After the addition of cell culture medium the cells are centrifuged, resuspended in culture medium and counted in a Casy cell counter. Then 40,000 cells per well are seeded into a white, 96-well plate coated with poly-D-lysine and incubated overnight at 37° C., 5% CO2. The cells are washed twice with 250 μl of assay buffer (Hanks Balanced Salt Solution, 137 mM NaCl, 5.4 mM KCl, 2.8 mM CaCl2, 1.2 mM MgSO4 and 10 mM HEPES (pH7.4), 50 μg/ml of gentamycin). Two hundred-fifty microliters of assay buffer and 5 μl of test compound are then added to each well and the plate is incubated for a further 15 minutes in the incubator. Five microliters of 10% DMSO are used as the negative control. […] After this incubation the radioactivity of the ^14C-AMG absorbed is measured in a Topcount (Packard) using a ^14C scintillation program.

EC50: ~5 nM
SMILES: CCc1ccc(Cc2c(O[C@@H]3O[C@H](CO)[C@@H](O)[C@H](O)[C@H]3O)nn(C3CCOCC3)c2C)cc1 [compound (4) of Example 3, 1-(tetrahydropyran-4-yl)-3-(β-D-glucopyranosyloxy)-4-(4-ethylbenzyl)-5-methyl-1H-pyrazole]
